{"source": "paper PMC9504583", "about": "“Stability Study, Quantification Method and Pharmacokinetics Investigation of a Coumarin–Monoterpene Conjugate Possessing Antiviral Properties against Respiratory Syncytial Virus” (Pharmaceuticals, 2022)", "key": {"[1]": {"set-up": "method as in PMID 31847686", "details": "ICR mice, oral, cited from earlier work"}, "RSV serotype A": {"system": "RSV serotype A", "set-up": "method as in PMID 34946573", "details": "cited from earlier work"}, "[2]": {"assay": "pharmacokinetics study of K-142 after oral administration to mice", "format": "in vivo, CD1 mice", "details": "20 mg/kg", "procedure": "The method has been applied to a pharmacokinetic study of the agent K-142 in mice (n = 8). The substance was administered to the animals orally at a dose of 20 mg/kg. After drug administration, blood samples were taken from the tail vein and treated with the precipitating solution, and the samples were analyzed.\nThe maximum values of concentrations observed for animals vary in the range from 15 to 90 ng/mL, and the average value is about 46 ng/mL. Thereafter, the content of the substance in the blood gradually decreases, and almost complete excretion is achieved in about 2 h. As the average concentration of K-142 in mice blood was c.a. 3.1 ng/mL, which is below LLOQ, this time point was not included in calculation of pharmacokinetics parameters and is shown in Figure 5 just for information. Due to the same reason, the data on the concentrations of the agent K-142 in animal #8 were also not taken into account for the calculation. The averaged values of pharmacokinetic parameters were calculated for a period of time from 0 to 60 min and are given in Table 1.\nExperiments were performed on adult CD1 mice (n = 8) weighing 30–40 g. Animals were obtained from the animal facility of the Institute of Cytology and Genetics SB RAS and kept under standard conditions with free access to food and water. All experiments were performed in accordance with the “European Convention for the Protection of Vertebrate Animals Used for Experimental and other Scientific Purposes”, 1986.\nPharmacokinetics of the agent K-142 was studied at a dose of 20 mg/kg after its oral administration. To prepare the dosage form, a weight of the substance was mixed with c.a. 20 µL of Tween-80 followed by the dilution of the sample with physiological saline to a volume of 0.2 mL per 10 g of mouse bodyweight. Blood aliquots (10 µL) were taken in duplicate from the animal tail vein 10, 20, 30, 45 min, 1, 1.5, 2, 2.5 3, 4, 5 and 6 h after substance administration. The samples were mixed with the precipitation solution and processed according to the protocol and analyzed. Pharmacokinetic parameters were calculated using PKSolver and are presented as mean ± standard error of mean (SEM)."}, "[3]": {"assay": "stability study in whole mice blood in vitro", "format": "in vitro ADME", "details": "spike 1000 ng/mL, aliquots 5-240 min, peak area", "procedure": "To study the stability of K-142 in whole blood of mice, a spike containing the substance at the concentration of 1000 ng/mL was prepared. After preparation, the spike was placed on a shaker and shaken throughout the experiment. Aliquots of the spike with a volume of 50 μL were taken after 5, 10, 15, 30, 60, 120, 180 and 240 min, after which the sample was prepared and analyzed, and K-142 peak area in obtained chromatograms was measured.\nIt can be seen from the chart (Figure S1) showing the K-142 peak area in the chromatogram that no decrease in its concentration happens for at least 4 h."}, "RSV serotype B": {"system": "RSV serotype B", "set-up": "method as in PMID 34946573", "details": "cited from earlier work"}, "[4]": {"set-up": "method as in PMID 27420975", "details": "rats, cited from earlier work"}, "[5]": {"details": "CD1, mouse, whole blood, mean ± SEM, calculated 0-60 min, animal #8 excluded"}}, "note": "Like-named read-outs stand apart in the source and are kept apart here.", "data": [{"molecule": "CC(C)=CCc1c(O)ccc2ccc(=O)oc12", "note": "[osthenol]", "values": [{"measurement": "Cmax", "setting": "[1]; 5 mg/kg", "value": "66.1 ± 3.2", "unit": "ng/mL"}, {"measurement": "Tmax", "setting": "[1]; 5 mg/kg", "value": "36.3 ± 13.8", "unit": "min"}, {"measurement": "Cmax", "setting": "[1]; 20 mg/kg", "value": "56.0 ± 29.1", "unit": "ng/mL"}, {"measurement": "Tmax", "setting": "[1]; 20 mg/kg", "value": "6.3 ± 1.3", "unit": "min"}, {"measurement": "bioavailability (in words)", "setting": "[1]; 5 and 20 mg/kg", "value": "very low bioavailability"}]}, {"molecule": "CC1(C)C2CC=C(COc3ccc4c5c(c(=O)oc4c3)CCCC5)C1C2", "note": "(centres unmarked) [K-142]", "values": [{"measurement": "IC50", "setting": "RSV serotype A; RSV serotype A", "value": 5, "unit": "µM"}, {"measurement": "selectivity index (SI)", "setting": "RSV serotype A; RSV, serotype not specified for SI", "value": 77}, {"measurement": "CL", "setting": "[2]; mean ± SEM, calculated 0-60 min, animal #8 excluded", "value": "(1.3 ± 0.2) × 10^−2 (mg/kg)/(ng/mL)/min"}, {"measurement": "time at which maximum concentration is reached", "setting": "[2]; whole blood", "value": 10, "unit": "min"}, {"measurement": "time to almost complete excretion", "setting": "[2]; whole blood", "value": "about 2 h"}, {"measurement": "concentration at 2 h", "setting": "[2]; CD1, mouse, whole blood, below LLOQ (5 ng/mL), not used for PK calculation, read-out: average concentration in mice blood at about 2 h", "value": "~3.1", "unit": "ng/mL"}, {"measurement": "AUC(0-inf)", "setting": "[2]; [5]", "value": 26.2, "unit": "ng·h/mL"}, {"measurement": "Cmax", "setting": "[2]; [5]", "value": "63.4 ± 19.1", "unit": "ng/mL"}, {"measurement": "half-life", "setting": "[2]; [5]", "value": "27.7 ± 5.4", "unit": "min"}, {"measurement": "MRT inf", "setting": "[2]; CD1, mouse, whole blood, mean ± SEM, calculated 0-60 min, animal #8 excluded, read-out: MRT0–∞ (converted)", "value": 40.5, "unit": "min"}, {"measurement": "time with no decrease in concentration (stability)", "setting": "[3]", "value": "at least 4 h"}, {"measurement": "IC50", "setting": "RSV serotype B", "value": 5, "unit": "µM"}]}, {"molecule": "CC(C)=CCC/C(C)=C/COc1ccc2ccc(=O)oc2c1", "note": "[auraptene]", "values": [{"measurement": "Tmax", "setting": "[4]; oral, 100 mg/kg, plasma", "value": "108.0 ± 25.3", "unit": "min"}, {"measurement": "maximum concentration in blood plasma", "setting": "[4]; oral, 100 mg/kg, plasma", "value": "1719 ± 384.3", "unit": "ng/mL"}, {"measurement": "bioavailability", "setting": "[4]", "value": 8.5, "unit": "%"}]}]}
